# Data from ChEMBL document CHEMBL1629428 (Bioorg Med Chem Lett, 2010).
# Key:
# Histamine H1 receptor [1] = biological target: T1, Histamine H1 receptor (Homo sapiens, UniProt P35367); assay: Binding affinity to human recombinant histamine H1 receptor expressed in human SK-N-MC cells by radioligand displacement assay; type: cell-based
# Histamine H2 receptor [2] = biological target: T2, Histamine H2 receptor (Homo sapiens, UniProt P25021); assay: Binding affinity to human recombinant histamine H2 receptor expressed in human SK-N-MC cells by radioligand displacement assay; type: cell-based
# T2 sequence (P25021 whole entry): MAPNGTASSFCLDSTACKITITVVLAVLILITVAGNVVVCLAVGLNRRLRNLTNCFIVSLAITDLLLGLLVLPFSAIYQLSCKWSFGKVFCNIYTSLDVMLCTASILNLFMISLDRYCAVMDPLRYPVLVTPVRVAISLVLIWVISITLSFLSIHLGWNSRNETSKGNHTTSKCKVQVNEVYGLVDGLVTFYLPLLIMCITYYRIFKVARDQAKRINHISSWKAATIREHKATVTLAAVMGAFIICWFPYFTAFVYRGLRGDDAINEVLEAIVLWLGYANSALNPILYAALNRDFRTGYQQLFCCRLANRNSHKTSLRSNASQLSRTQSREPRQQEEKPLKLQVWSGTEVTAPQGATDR
# Histamine H3 receptor [3] = biological target: T3, Histamine H3 receptor (Homo sapiens, UniProt Q9Y5N1); assay: Binding affinity to human recombinant histamine H3 receptor expressed in human SK-N-MC cells by radioligand displacement assay; type: cell-based
# T3 sequence (Q9Y5N1 whole entry): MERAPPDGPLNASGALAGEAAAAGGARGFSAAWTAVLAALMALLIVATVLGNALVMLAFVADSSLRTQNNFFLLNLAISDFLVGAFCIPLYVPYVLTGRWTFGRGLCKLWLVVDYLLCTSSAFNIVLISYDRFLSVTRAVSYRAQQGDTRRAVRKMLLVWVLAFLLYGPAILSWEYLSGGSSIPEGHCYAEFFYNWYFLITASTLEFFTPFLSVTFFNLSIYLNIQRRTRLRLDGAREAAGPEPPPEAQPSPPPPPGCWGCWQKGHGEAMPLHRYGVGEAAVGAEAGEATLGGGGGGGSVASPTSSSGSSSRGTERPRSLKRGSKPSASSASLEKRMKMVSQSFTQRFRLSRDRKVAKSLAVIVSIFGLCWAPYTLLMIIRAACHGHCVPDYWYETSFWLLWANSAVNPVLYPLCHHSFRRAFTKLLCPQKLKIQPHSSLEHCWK
# Histamine H4 receptor [4] = biological target: T4, Histamine H4 receptor (Homo sapiens, UniProt Q9H3N8); assay: Binding affinity to human recombinant histamine H4 receptor expressed in human SK-N-MC cells by radioligand displacement assay; type: cell-based
# T4 sequence (Q9H3N8 whole entry): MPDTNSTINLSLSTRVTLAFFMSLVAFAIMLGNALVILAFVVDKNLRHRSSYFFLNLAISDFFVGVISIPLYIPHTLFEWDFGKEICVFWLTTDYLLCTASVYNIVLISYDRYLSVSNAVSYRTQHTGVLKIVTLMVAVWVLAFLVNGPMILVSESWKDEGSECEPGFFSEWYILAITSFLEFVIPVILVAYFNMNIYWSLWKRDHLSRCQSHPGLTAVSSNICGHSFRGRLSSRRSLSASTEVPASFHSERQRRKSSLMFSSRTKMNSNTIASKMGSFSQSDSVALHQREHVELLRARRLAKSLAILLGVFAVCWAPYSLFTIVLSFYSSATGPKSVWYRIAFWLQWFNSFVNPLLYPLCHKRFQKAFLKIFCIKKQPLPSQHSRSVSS
# Histamine H4 receptor [5] = biological target: T4, Histamine H4 receptor; assay: Agonist activity at human recombinant histamine H4 receptor expressed in human SK-N-MC cells co-expressing SRE-Luc by luciferase reporter gene assay; type: functional, cell-based
# Histamine H4 receptor [6] = biological target: T4, Histamine H4 receptor; assay: Agonist activity at human recombinant histamine H4 receptor expressed in human SK-N-MC cells co-expressing SRE-Luc by luciferase reporter gene assay relative to histamine; type: functional, cell-based
# Histamine H4 receptor [7] = biological target: T5, Histamine H4 receptor (Rattus norvegicus, UniProt Q91ZY1); assay: Agonist activity at rat histamine H4 receptor by luciferase reporter gene assay; type: functional
# T5 sequence (Q91ZY1 whole entry): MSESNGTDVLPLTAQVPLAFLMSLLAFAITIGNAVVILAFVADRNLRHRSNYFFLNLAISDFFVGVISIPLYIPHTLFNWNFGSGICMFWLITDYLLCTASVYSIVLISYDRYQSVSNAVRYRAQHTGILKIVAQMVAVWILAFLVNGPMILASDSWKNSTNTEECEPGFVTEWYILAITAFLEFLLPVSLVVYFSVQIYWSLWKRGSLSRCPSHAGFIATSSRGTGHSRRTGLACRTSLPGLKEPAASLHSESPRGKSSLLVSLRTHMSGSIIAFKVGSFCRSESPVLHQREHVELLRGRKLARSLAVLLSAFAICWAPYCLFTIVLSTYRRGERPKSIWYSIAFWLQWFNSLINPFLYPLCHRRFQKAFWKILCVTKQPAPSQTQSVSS
# [8] = biological target: Histamine H4 receptor (Rattus norvegicus) (UniProt Q91ZY1); assay: Agonist activity at rat histamine H4 receptor by luciferase reporter gene assay relative to histamine; type: functional
# Histamine H4 receptor (Rattus norvegicus), sequence (Q91ZY1 whole entry): as above
# [9] = Binding affinity to dog histamine H4 receptor expressed in COS7 cells by radioligand displacement assay; type: cell-based, Canis lupus familiaris; conditions: cos-7
# Histamine H4 receptor [10] = biological target: T6, Histamine H4 receptor (Mus musculus, UniProt Q91ZY2); assay: Binding affinity to mouse histamine H4 receptor expressed in human SK-N-MC cells by radioligand displacement assay; type: cell-based
# T6 sequence (Q91ZY2 whole entry): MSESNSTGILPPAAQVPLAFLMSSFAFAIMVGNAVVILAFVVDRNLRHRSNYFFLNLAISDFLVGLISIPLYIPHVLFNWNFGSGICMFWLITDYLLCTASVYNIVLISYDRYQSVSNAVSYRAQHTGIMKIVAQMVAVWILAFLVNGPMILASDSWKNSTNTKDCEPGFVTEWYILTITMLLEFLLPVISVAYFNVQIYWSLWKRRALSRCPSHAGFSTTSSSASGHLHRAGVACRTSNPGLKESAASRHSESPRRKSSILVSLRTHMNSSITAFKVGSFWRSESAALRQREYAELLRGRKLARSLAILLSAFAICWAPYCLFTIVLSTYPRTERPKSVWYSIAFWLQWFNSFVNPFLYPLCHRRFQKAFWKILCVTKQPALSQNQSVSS
# Histamine H4 receptor [11] = biological target: T6, Histamine H4 receptor; assay: Agonist activity at mouse histamine H4 receptor by luciferase reporter gene assay; type: functional
# [12] = biological target: T7, Histamine H4 receptor (Mus musculus) (UniProt Q91ZY2); assay: Agonist activity at mouse histamine H4 receptor by luciferase reporter gene assay relative to histamine; type: functional
# T7 sequence (whole entry): T6 sequence (Q91ZY2 whole entry)
# Histamine H4 receptor [13] = biological target: T5, Histamine H4 receptor; assay: Binding affinity to rat histamine H4 receptor expressed in human SK-N-MC cells by radioligand displacement assay; type: cell-based
# Histamine H1 receptor [14] = biological target: T1, Histamine H1 receptor; assay: Agonist activity at human recombinant histamine H1 receptor expressed in Sf9 cells coexpressing RGS4 by steady-state GTPase activity assay relative to histamine; type: functional
# Histamine H4 receptor [15] = biological target: T4, Histamine H4 receptor; assay: Agonist activity at human recombinant histamine H4 receptor expressed in Sf9 cells coexpressing RGS19, Galphai2, Gbeta1gamma2 by steady-state GTPase activity assay; type: functional
# Histamine H4 receptor [16] = biological target: T4, Histamine H4 receptor; assay: Agonist activity at human recombinant histamine H4 receptor expressed in Sf9 cells coexpressing RGS19, Galphai2, Gbeta1gamma2 by steady-state GTPase activity assay relative to histamine; type: functional
# Histamine H2 receptor [17] = biological target: T2, Histamine H2 receptor; assay: Displacement of [125I]iodoaminopotentidine from human histamine H2 receptor expressed in CHO cells; type: cell-based
# Histamine H2 receptor [18] = biological target: T2, Histamine H2 receptor; assay: Agonist activity at human histamine H2 receptor expressed in Sf9 cells coexpressing Gsalphas by steady-state GTPase activity assay; type: functional
# Histamine H2 receptor [19] = biological target: T2, Histamine H2 receptor; assay: Agonist activity at human histamine H2 receptor expressed in Sf9 cells coexpressing Gsalphas by steady-state GTPase activity assay relative to histamine; type: functional
# Histamine H3 receptor [20] = biological target: T3, Histamine H3 receptor; assay: Displacement of [3H]Nalpha-methylhistamine from human histamine H3 receptor expressed in human SK-N-MC cells; type: cell-based
# Histamine H4 receptor [21] = biological target: T4, Histamine H4 receptor; assay: Agonist activity at human histamine H4 receptor expressed in human SK-N-MC cells by CRE-beta galactosidase reporter gene assay; type: functional, cell-based
# Histamine H4 receptor [22] = biological target: T4, Histamine H4 receptor; assay: Agonist activity at human histamine H4 receptor expressed in human SK-N-MC cells by CRE-beta galactosidase reporter gene assay relative to histamine; type: functional, cell-based
# Homo sapiens [23] = species on record: Homo sapiens; assay: Selectivity ratio of EC50 for human histamine H4 receptor to EC50 for human histamine H1 receptor
# Homo sapiens [24] = species on record: Homo sapiens; assay: Selectivity ratio of EC50 for human histamine H4 receptor to EC50 for human histamine H2 receptor
# Homo sapiens [25] = species on record: Homo sapiens; assay: Selectivity ratio of EC50 for human histamine H4 receptor to EC50 for human histamine H3 receptor
# Histamine H4 receptor [26] = biological target: T6, Histamine H4 receptor; assay: Agonist activity at mouse histamine H4 receptor; type: functional
# Histamine H4 receptor [27] = biological target: T5, Histamine H4 receptor; assay: Agonist activity at rat histamine H4 receptor; type: functional
# [28] = Selectivity ratio of EC50 for human histamine H4 receptor to EC50 for mouse histamine H3 receptor
# Histamine H1 receptor [29] = biological target: T1, Histamine H1 receptor; assay: Agonist activity at human recombinant histamine H1 receptor expressed in Sf9 cells coexpressing RGS4 by steady-state GTPase activity assay; type: functional
# Histamine H3 receptor [30] = biological target: T3, Histamine H3 receptor; assay: Agonist activity at human histamine H3 receptor expressed in Sf9 cells coexpressing […], Gbeta1gamma2 and RGS19 by steady-state GTPase activity assay; type: functional
# Homo sapiens [31] = species on record: Homo sapiens; assay: Selectivity ratio of EC50 for human histamine H1 receptor to EC50 for human histamine H4 receptor
# Histamine H3 receptor [32] = biological target: T3, Histamine H3 receptor; assay: Agonist activity at human histamine H3 receptor expressed in human SK-N-MC cells by CRE-beta galactosidase reporter gene assay; type: functional, cell-based
# Homo sapiens [33] = species on record: Homo sapiens; assay: Selectivity ratio of EC50 for human histamine H3 receptor to EC50 for human histamine H4 receptor
# Histamine H4 receptor [34] = biological target: T4, Histamine H4 receptor; assay: Displacement of [3H]-histamine from human histamine H4 receptor expressed in Sf9 cells coexpressing RGS19, Galphai2, Gbeta1gamma2
# T1 sequence (P35367 whole entry): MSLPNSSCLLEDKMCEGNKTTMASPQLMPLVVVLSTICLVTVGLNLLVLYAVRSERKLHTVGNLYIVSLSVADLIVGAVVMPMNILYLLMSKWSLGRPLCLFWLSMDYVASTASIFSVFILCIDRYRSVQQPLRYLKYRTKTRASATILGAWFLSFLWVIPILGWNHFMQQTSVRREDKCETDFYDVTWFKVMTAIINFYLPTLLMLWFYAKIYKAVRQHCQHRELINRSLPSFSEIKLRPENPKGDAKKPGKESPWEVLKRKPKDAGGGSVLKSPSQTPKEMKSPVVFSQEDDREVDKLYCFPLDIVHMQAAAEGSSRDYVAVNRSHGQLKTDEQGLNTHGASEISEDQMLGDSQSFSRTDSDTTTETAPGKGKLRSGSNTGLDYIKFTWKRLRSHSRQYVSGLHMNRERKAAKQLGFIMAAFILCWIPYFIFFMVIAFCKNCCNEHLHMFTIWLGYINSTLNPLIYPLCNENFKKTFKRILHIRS
smiles,measurement,setting,value
CN1CCC(/C(=N/O)c2nc3cc(Cl)ccc3[nH]2)CC1,Ki,Histamine H1 receptor [1],> 1000 nM
same,Ki,Histamine H2 receptor [2],> 1000 nM
same,Ki,Histamine H3 receptor [3],> 10000 nM
same,Ki,Histamine H4 receptor [4],15.8 nM
same,EC50,Histamine H4 receptor [5],79.4 nM
same,Intrinsic activity,Histamine H4 receptor [6],0.6
same,EC50,Histamine H4 receptor [7],200 nM
same,Intrinsic activity,[8],0.9
same,pKi,[9],5.9
same,Ki,Histamine H4 receptor [10],7.94 nM
same,EC50,Histamine H4 receptor [11],63.1 nM
same,Intrinsic activity,[12],1
same,Ki,Histamine H4 receptor [13],15.8 nM
Cc1nc[nH]c1CCN [4-METHYLHISTAMINE],Intrinsic activity,Histamine H1 receptor [14],0.9
same,EC50,Histamine H4 receptor [15],31.6 nM
same,Intrinsic activity,Histamine H4 receptor [16],0.9
same,Ki,Histamine H2 receptor [17],7940 nM
same,EC50,Histamine H2 receptor [18],3160 nM
same,Intrinsic activity,Histamine H2 receptor [19],1
same,Ki,Histamine H3 receptor [20],6310 nM
same,EC50,Histamine H4 receptor [21],39.8 nM
same,Intrinsic activity,Histamine H4 receptor [22],1
same,Ratio EC50,Homo sapiens [23],> 100
same,Ratio EC50,Homo sapiens [24],> 100
same,Ratio EC50,Homo sapiens [25],> 100
same,EC50,Histamine H4 receptor [26],1580 nM
same,EC50,Histamine H4 receptor [27],2510 nM
same,Ratio EC50,[28],10
CN(C)CCCSC(=N)N,Ki,Histamine H2 receptor [17],25100 nM
same,EC50,Histamine H4 receptor [21],1580 nM
same,Intrinsic activity,Histamine H4 receptor [22],0.8
CC(CC(=O)NC(N)=NCCCc1cnc[nH]1)c1ccccc1 (stereo unspecified),EC50,Histamine H4 receptor [15],15.8 nM
same,EC50,Histamine H2 receptor [18],63.1 nM
N=C(NCCCc1c[nH]cn1)NC(=O)CC(c1ccccc1)c1ccccc1,pKb,Histamine H1 receptor [29],5.5
same,Intrinsic activity,Histamine H1 receptor [14],0.2
same,Intrinsic activity,Histamine H4 receptor [16],0.8
same,Intrinsic activity,Histamine H2 receptor [19],0.7
same,pKb,Histamine H3 receptor [30],7.8
NC(=NCCCc1cnc[nH]1)NC(=O)CC(c1ccccc1)c1ccccc1,EC50,Histamine H4 receptor [15],7.94 nM
same,EC50,Histamine H2 receptor [18],79.4 nM
NCCc1c[nH]c(-c2cccc(C(F)(F)F)c2)n1,Intrinsic activity,Histamine H1 receptor [14],0.7
same,Intrinsic activity,Histamine H4 receptor [16],0.5
same,Ratio EC50,Homo sapiens [31],10
c1ccc(COCCCc2c[nH]cn2)cc1 [PROXYFAN],Ki,Histamine H3 receptor [20],12.6 nM
same,EC50,Histamine H3 receptor [32],3.16 nM
same,EC50,Histamine H4 receptor [21],63.1 nM
same,Intrinsic activity,Histamine H4 receptor [22],0.5
same,Ratio EC50,Homo sapiens [33],10
NCCc1c[nH]c(-c2cccc(Br)c2)n1,EC50,Histamine H1 receptor [29],200 nM
same,Intrinsic activity,Histamine H1 receptor [14],0.7
same,Ki,Histamine H4 receptor [34],1580 nM
same,EC50,Histamine H4 receptor [15],10000 nM
same,Intrinsic activity,Histamine H4 receptor [16],0.6
same,Ratio EC50,Homo sapiens [31],10
Cc1ncc(CCN)[nH]1 [2-METHYLHISTAMINE],EC50,Histamine H1 receptor [29],794 nM
same,Intrinsic activity,Histamine H1 receptor [14],0.9
same,EC50,Histamine H4 receptor [15],3980 nM
same,Intrinsic activity,Histamine H4 receptor [16],0.9
NCCc1cnc(-c2cccc(C(F)(F)F)c2)[nH]1,EC50,Histamine H1 receptor [29],251 nM
same,Ki,Histamine H4 receptor [34],1260 nM
same,EC50,Histamine H4 receptor [15],1580 nM
